# Test results as given in article PMC6783499, “Heteroglycoclusters With Dual Nanomolar Affinities for the Lectins LecA and LecB From Pseudomonas aeruginosa” (Frontiers in Chemistry, 2019).
# Biological target: T1, LecB (Pseudomonas aeruginosa, UniProt Q9HYN5)
# T1 construct: made in house; host or cells: Escherichia coli BL21(DE3)
# Assay: biochemical
# Assay type: binding
# Settings: for n (stoichiometry, glycocluster molecules per lectin monomer): pH 7.5; for –ΔG / –ΔH / −TΔS: per mole of glycocluster; for α (relative potency compared to the monovalent compound) / β (relative potency per sugar unit): relative to αFuc-OMe
# Method: The resulting hGCs were tested in solution with lectins by Isothermal Titration Calorimetry (Table 1) and their binding properties were compared with homoclusters 15–20 (Berthet et al., [2013]; Thomas et al., [2015b]) displaying either 4 and 16 βGal or αFuc units attached with an oxime or a triazole linker (Figure 3). […] Experiments were performed in direct injection mode (i.e., ligand in syringe and protein in cell) to minimize aggregation problems.
# All chemical reagents were purchased from Aldrich (Saint Quentin Fallavier, France) or Acros (Noisy-Le-Grand, France). All protected amino acids and Fmoc-Gly-Sasrin® resin was obtained from Advanced ChemTech Europe (Brussels, Belgium). For peptides and glycopeptides, analytical RP-HPLC was performed on Waters system equipped with a Waters 2695 separations module and a Waters 2487 Dual Absorbance UV/Visible Detector. Analysis was carried out at 1.0 mL/min (EC 125/3 nucleosil 300-5 C18) with UV monitoring at 214 nm and 250 nm using a linear A–B gradient (buffer A: 0.09% CF3CO2H in water; buffer B: 0.09% CF3CO2H in 90% acetonitrile). Purifications were carried out at 22.0 mL/min (VP 250/21 nucleosil 100-7 C18) with UV monitoring at 214 nm and 250 nm using a linear A–B gradient. HRMS and ESI-MS and HRMS spectra of peptides and glycopeptides were measured on an Esquire 3000 spectrometer from Bruker. Lectins LecA and LecB were produced in recombinant form in Escherichia coli BL21(DE3) as described previously (Mitchell et al., [2005]; Blanchard et al., [2008]).
# Other compounds were assayed with a VP-ITC isothermal titration calorimeter (Microcal). The experiments were carried out at 25°C. All glycocompounds and lectins LecB and LecA were dissolved in the same buffer composed of 20 mM Tris with 100 mM NaCl and 0.1 mM CaCl2 at pH 7.5. For PEAQ-ITC, the lectins were placed in the microcalorimeter cell (200 μL) at concentrations varying from 35 to 70 μM. […] For VP-ITC, the microcalorimeter cell (1.447 mL) contained the lectins with concentrations between 30 and 100 μM. A total of 30 injections of 10 μL were performed intervals of 5 min while stirring at 310 rpm with glycoclusters concentrations varying from […]. The experimental data were fitted to a theoretical titration curve using the Microcal PEAQ-ITC analysis software, with ΔH (enthalpy change), Ka (association constant), and N (number of binding sites per monomer) as adjustable parameters. Dissociation constant (Kd), free energy change (ΔG), and entropy contributions (TΔS) were derived from the previous ones. Two or three independent titrations were performed for each ligand tested.
# [1] = ITC, 25°C, 20 mM Tris, 100 mM NaCl, 0.1 mM CaCl2, pH 7.5, ligand in syringe
# T1 sequence (Q9HYN5 entry or part of it): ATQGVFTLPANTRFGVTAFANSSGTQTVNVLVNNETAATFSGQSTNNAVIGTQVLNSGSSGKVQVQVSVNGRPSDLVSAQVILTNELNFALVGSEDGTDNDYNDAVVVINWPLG
Compound,binding improvement on multimerisation of tetravalent to hexadecavalent dendrimer (19 versus tetravalent 15) [fold],"n (stoichiometry, glycocluster molecules per lectin monomer) (ITC, 25°C)","–ΔG (ITC, 25°C) [kcal/mol]","–ΔH (ITC, 25°C) [kcal/mol]","−TΔS (ITC, 25°C) [kcal/mol]",Kd [1] [nM],binding to LecB in words (abstract),α (relative potency compared to the monovalent compound),β (relative potency per sugar unit),"Kd (ITC, rounded value) [nM]",–ΔH (binding enthalpy) (ITC) [kcal/mol]
C[C@@H]1NC(=O)[C@H](CCCCNC(=O)/C=N/OCC(=O)NCCCC[C@@H]2NC(=O)[C@H](CCCCNC(=O)/C=N/O[C@@H]3O[C@@H](C)[C@@H](O)[C@@H](O)[C@@H]3O)NC(=O)CNC(=O)[C@@H]3CCCN3C(=O)[C@H](CCCCNC(=O)/C=N/O[C@@H]3O[C@@H](C)[C@@H](O)[C@@H](O)[C@@H]3O)NC(=O)[C@H](C)NC(=O)[C@H](CCCCNC(=O)/C=N/O[C@@H]3O[C@@H](C)[C@@H](O)[C@@H](O)[C@@H]3O)NC(=O)CNC(=O)[C@@H]3CCCN3C(=O)[C@H](CCCCNC(=O)/C=N/O[C@@H]3O[C@@H](C)[C@@H](O)[C@@H](O)[C@@H]3O)NC2=O)NC(=O)CNC(=O)[C@@H]2CCCN2C(=O)[C@H](CCCCNC(=O)/C=N/OCC(=O)NCCCC[C@@H]2NC(=O)[C@H](CCCCNC(=O)/C=N/O[C@@H]3O[C@@H](C)[C@@H](O)[C@@H](O)[C@@H]3O)NC(=O)CNC(=O)[C@@H]3CCCN3C(=O)[C@H](CCCCNC(=O)/C=N/O[C@@H]3O[C@@H](C)[C@@H](O)[C@@H](O)[C@@H]3O)NC(=O)[C@H](C)NC(=O)[C@H](CCCCNC(=O)/C=N/O[C@@H]3O[C@@H](C)[C@@H](O)[C@@H](O)[C@@H]3O)NC(=O)CNC(=O)[C@@H]3CCCN3C(=O)[C@H](CCCCNC(=O)/C=N/O[C@@H]3O[C@@H](C)[C@@H](O)[C@@H](O)[C@@H]3O)NC2=O)NC(=O)[C@H](CCCCN)NC(=O)[C@H](CCCCNC(=O)/C=N/OCC(=O)NCCCC[C@@H]2NC(=O)[C@H](CCCCNC(=O)/C=N/O[C@@H]3O[C@@H](C)[C@@H](O)[C@@H](O)[C@@H]3O)NC(=O)CNC(=O)[C@@H]3CCCN3C(=O)[C@H](CCCCNC(=O)/C=N/O[C@@H]3O[C@@H](C)[C@@H](O)[C@@H](O)[C@@H]3O)NC(=O)[C@H](C)NC(=O)[C@H](CCCCNC(=O)/C=N/O[C@@H]3O[C@@H](C)[C@@H](O)[C@@H](O)[C@@H]3O)NC(=O)CNC(=O)[C@@H]3CCCN3C(=O)[C@H](CCCCNC(=O)/C=N/O[C@@H]3O[C@@H](C)[C@@H](O)[C@@H](O)[C@@H]3O)NC2=O)NC(=O)CNC(=O)[C@@H]2CCCN2C(=O)[C@H](CCCCNC(=O)/C=N/OCC(=O)NCCCC[C@@H]2NC(=O)[C@H](CCCCNC(=O)/C=N/O[C@@H]3O[C@@H](C)[C@@H](O)[C@@H](O)[C@@H]3O)NC(=O)CNC(=O)[C@@H]3CCCN3C(=O)[C@H](CCCCNC(=O)/C=N/O[C@@H]3O[C@@H](C)[C@@H](O)[C@@H](O)[C@@H]3O)NC(=O)[C@H](C)NC(=O)[C@H](CCCCNC(=O)/C=N/O[C@@H]3O[C@@H](C)[C@@H](O)[C@@H](O)[C@@H]3O)NC(=O)CNC(=O)[C@@H]3CCCN3C(=O)[C@H](CCCCNC(=O)/C=N/O[C@@H]3O[C@@H](C)[C@@H](O)[C@@H](O)[C@@H]3O)NC2=O)NC1=O [Compound 19],10,0.06,10,76.72 ± 3.35,66.68,44 ± 5,nanomolar affinity,9.8,0.6,,
C[C@@H]1NC(=O)[C@H](CCCCn2cc(CO[C@@H]3O[C@@H](C)[C@@H](O)[C@@H](O)[C@@H]3O)nn2)NC(=O)CNC(=O)[C@@H]2CCCN2C(=O)[C@H](CCCCn2cc(CO[C@@H]3O[C@@H](C)[C@@H](O)[C@@H](O)[C@@H]3O)nn2)NC(=O)[C@H](CCCCN)NC(=O)[C@H](CCCCn2cc(CO[C@@H]3O[C@@H](C)[C@@H](O)[C@@H](O)[C@@H]3O)nn2)NC(=O)CNC(=O)[C@@H]2CCCN2C(=O)[C@H](CCCCn2cc(CO[C@@H]3O[C@@H](C)[C@@H](O)[C@@H](O)[C@@H]3O)nn2)NC1=O [Compound 16],,0.19,8.8,28.56 ± 0.24,19.8,367 ± 26,,1.2,0.3,300,
C[C@@H]1NC(=O)[C@H](CCCCNC(=O)/C=N/O[C@@H]2O[C@@H](C)[C@@H](O)[C@@H](O)[C@@H]2O)NC(=O)CNC(=O)[C@@H]2CCCN2C(=O)[C@H](CCCCNC(=O)/C=N/O[C@@H]2O[C@@H](C)[C@@H](O)[C@@H](O)[C@@H]2O)NC(=O)[C@H](CCCCNC(=O)CO/N=C/C(=O)NCCCC[C@@H]2NC(=O)CNC(=O)[C@@H]3CCCN3C(=O)[C@H](CCCCNC(=O)/C=N/OCC(=O)NCCCC[C@@H]3NC(=O)[C@H](CCCCNC(=O)/C=N/O[C@@H]4O[C@@H](C)[C@@H](O)[C@@H](O)[C@@H]4O)NC(=O)CNC(=O)[C@@H]4CCCN4C(=O)[C@H](CCCCNC(=O)/C=N/O[C@@H]4O[C@@H](C)[C@@H](O)[C@@H](O)[C@@H]4O)NC(=O)[C@H](C)NC(=O)[C@H](CCCCNC(=O)/C=N/O[C@@H]4O[C@@H](C)[C@@H](O)[C@@H](O)[C@@H]4O)NC(=O)CNC(=O)[C@@H]4CCCN4C(=O)[C@H](CCCCNC(=O)/C=N/O[C@@H]4O[C@@H](C)[C@@H](O)[C@@H](O)[C@@H]4O)NC3=O)NC(=O)[C@H](CCCCN)NC(=O)[C@H](CCCCNC(=O)CO/N=C/C(=O)NCCCC[C@@H]3NC(=O)[C@H](CCCCn4cc(CO[C@H]5O[C@H](CO)[C@@H](O)[C@H](O)[C@@H]5O)nn4)NC(=O)CNC(=O)[C@@H]4CCCN4C(=O)[C@H](CCCCn4cc(CO[C@H]5O[C@H](CO)[C@@H](O)[C@H](O)[C@@H]5O)nn4)NC(=O)[C@H](C)NC(=O)[C@H](CCCCn4cc(CO[C@H]5O[C@H](CO)[C@@H](O)[C@H](O)[C@@H]5O)nn4)NC(=O)CNC(=O)[C@@H]4CCCN4C(=O)[C@H](CCCCn4cc(CO[C@H]5O[C@H](CO)[C@@H](O)[C@H](O)[C@@H]5O)nn4)NC3=O)NC(=O)CNC(=O)[C@@H]3CCCN3C(=O)[C@H](CCCCNC(=O)CO/N=C/C(=O)NCCCC[C@@H]3NC(=O)[C@H](CCCCn4cc(CO[C@H]5O[C@H](CO)[C@@H](O)[C@H](O)[C@@H]5O)nn4)NC(=O)CNC(=O)[C@@H]4CCCN4C(=O)[C@H](CCCCn4cc(CO[C@H]5O[C@H](CO)[C@@H](O)[C@H](O)[C@@H]5O)nn4)NC(=O)[C@H](C)NC(=O)[C@H](CCCCn4cc(CO[C@H]5O[C@H](CO)[C@@H](O)[C@H](O)[C@@H]5O)nn4)NC(=O)CNC(=O)[C@@H]4CCCN4C(=O)[C@H](CCCCn4cc(CO[C@H]5O[C@H](CO)[C@@H](O)[C@H](O)[C@@H]5O)nn4)NC3=O)NC(=O)[C@H](C)NC2=O)NC(=O)[C@H](CCCCNC(=O)/C=N/O[C@@H]2O[C@@H](C)[C@@H](O)[C@@H](O)[C@@H]2O)NC(=O)CNC(=O)[C@@H]2CCCN2C(=O)[C@H](CCCCNC(=O)/C=N/O[C@@H]2O[C@@H](C)[C@@H](O)[C@@H](O)[C@@H]2O)NC1=O [Compound 12],,0.08,9.66,50.43 ± 0.72,40.77,85 ± 16,,5.1,,,50.7
